The test system of this test is patients suffering from indolent systemic mastocytosis (ISM) or mast cell activation syndrome (MCAS) or having hypertryptasemia. The test can be described thus: Numeric rating scale (NRS) pain score in 15 patients treated with CBD capsules. The class given is in vivo, human. The conditions noted are these: for reduction of pain / average pain score (NRS): 15 patients; for reduction of pain: NRS; for average pain score (NRS): D0 average about 7.2. The method, then:
Fifteen patients suffering from indolent systemic mastocytosis (ISM) or mast cell activation syndrome (MCAS) or having hypertryptasemia with no positive result from classic treatments were treated with a daily dose from 15 to 400 mg of cannabidiol (CBD) by capsule.
The pain was measured using numeric rating scale (NRS) pain score, between 0 (no pain) and 10 (worst pain imaginable).

Where [1] appears, read: after one month of treatment (M1).
Where [2] appears, read: after three months of treatment (M3).

Entries after “also recorded” stand apart in the source; their conditions may differ.

For the compound `C=C(C)[C@@H]1CCC(C)=C[C@H]1c1c(O)cc(CCCCC)cc1O` [CBD, cannabidiol], the reduction of pain result reads like this: (M1 versus D0) “about 2 points”; (M3 versus D0) “about 3 points”. Besides, the “average pain score (NRS)” value reads like this: under setting [1], 5.1; under setting [2], 3.8. The “relief of pain observed” value by setting is: under setting [1], 13 of 15; under setting [2], 14 of 15. Also, the pain treatment withdrawal result (individual patient, other pain treatment stopped under CBD) is “stop stelara; also recorded: stop NSAID; also recorded: stop nefopam; also recorded: stop memantine,; also recorded: stop opioids; also recorded: stop methadone,; also recorded: stop methadone; also recorded: stop ketamine; also recorded: stop amitriptyline”.
